Assay results: patent US8148391B2 (Cephalon, Inc., priority 2006, dated 2012)

Assays:
[1] = biological target: T1, c-Met (cytoplasmic domain) (Homo sapiens, UniProt P08581); assay: c-Met Kinase Assay (same methods as for ALK, with modifications); format: biochemical; conditions: 1 μM ATP (Km level), 10 ng/mL c-Met; read-out: cMet Activity (c-Met kinase inhibition, IC50 class)
T1 construct: 10 ng/mL c-Met (cytoplasmic domain, Invitrogen Corporation #PV3143); purchased Invitrogen Corporation PV3143
T1 sequence (P08581 956-1390 limits assumed): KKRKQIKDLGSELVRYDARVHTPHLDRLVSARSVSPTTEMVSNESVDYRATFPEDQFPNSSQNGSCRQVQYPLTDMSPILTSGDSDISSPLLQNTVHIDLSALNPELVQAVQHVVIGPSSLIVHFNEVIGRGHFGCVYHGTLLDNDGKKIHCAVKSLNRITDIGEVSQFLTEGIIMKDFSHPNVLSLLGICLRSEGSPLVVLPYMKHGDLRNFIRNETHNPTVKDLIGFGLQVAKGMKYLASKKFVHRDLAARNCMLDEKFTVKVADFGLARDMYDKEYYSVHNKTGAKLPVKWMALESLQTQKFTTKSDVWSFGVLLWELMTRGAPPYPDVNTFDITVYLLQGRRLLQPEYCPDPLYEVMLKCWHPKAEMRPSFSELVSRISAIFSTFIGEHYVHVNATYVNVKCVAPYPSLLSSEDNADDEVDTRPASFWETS
In short: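 Steps: coat wells with PLC-γ (10 μg/mL, Tris-buffered saline); add 10 ng/mL c-Met cytoplasmic domain to initiate; incubate 15 min, 37° C; detect phosphoproduct via Eu-N1 PT66 antibody.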

[2] = biological target: T2, baculovirus-expressed ALK (Homo sapiens, UniProt Q9UM73); assay: ALK Kinase Assay (ELISA-type, time-resolved fluorescence); format: biochemical; conditions: 1 μM ATP (Km level), 30 ng/ml ALK, 37° C., 15 minutes; read-out: ALK Activity (ALK kinase inhibition, IC50 class)
T2 construct: host or cells: baculovirus expression system
T2 sequence (Q9UM73 19-1620): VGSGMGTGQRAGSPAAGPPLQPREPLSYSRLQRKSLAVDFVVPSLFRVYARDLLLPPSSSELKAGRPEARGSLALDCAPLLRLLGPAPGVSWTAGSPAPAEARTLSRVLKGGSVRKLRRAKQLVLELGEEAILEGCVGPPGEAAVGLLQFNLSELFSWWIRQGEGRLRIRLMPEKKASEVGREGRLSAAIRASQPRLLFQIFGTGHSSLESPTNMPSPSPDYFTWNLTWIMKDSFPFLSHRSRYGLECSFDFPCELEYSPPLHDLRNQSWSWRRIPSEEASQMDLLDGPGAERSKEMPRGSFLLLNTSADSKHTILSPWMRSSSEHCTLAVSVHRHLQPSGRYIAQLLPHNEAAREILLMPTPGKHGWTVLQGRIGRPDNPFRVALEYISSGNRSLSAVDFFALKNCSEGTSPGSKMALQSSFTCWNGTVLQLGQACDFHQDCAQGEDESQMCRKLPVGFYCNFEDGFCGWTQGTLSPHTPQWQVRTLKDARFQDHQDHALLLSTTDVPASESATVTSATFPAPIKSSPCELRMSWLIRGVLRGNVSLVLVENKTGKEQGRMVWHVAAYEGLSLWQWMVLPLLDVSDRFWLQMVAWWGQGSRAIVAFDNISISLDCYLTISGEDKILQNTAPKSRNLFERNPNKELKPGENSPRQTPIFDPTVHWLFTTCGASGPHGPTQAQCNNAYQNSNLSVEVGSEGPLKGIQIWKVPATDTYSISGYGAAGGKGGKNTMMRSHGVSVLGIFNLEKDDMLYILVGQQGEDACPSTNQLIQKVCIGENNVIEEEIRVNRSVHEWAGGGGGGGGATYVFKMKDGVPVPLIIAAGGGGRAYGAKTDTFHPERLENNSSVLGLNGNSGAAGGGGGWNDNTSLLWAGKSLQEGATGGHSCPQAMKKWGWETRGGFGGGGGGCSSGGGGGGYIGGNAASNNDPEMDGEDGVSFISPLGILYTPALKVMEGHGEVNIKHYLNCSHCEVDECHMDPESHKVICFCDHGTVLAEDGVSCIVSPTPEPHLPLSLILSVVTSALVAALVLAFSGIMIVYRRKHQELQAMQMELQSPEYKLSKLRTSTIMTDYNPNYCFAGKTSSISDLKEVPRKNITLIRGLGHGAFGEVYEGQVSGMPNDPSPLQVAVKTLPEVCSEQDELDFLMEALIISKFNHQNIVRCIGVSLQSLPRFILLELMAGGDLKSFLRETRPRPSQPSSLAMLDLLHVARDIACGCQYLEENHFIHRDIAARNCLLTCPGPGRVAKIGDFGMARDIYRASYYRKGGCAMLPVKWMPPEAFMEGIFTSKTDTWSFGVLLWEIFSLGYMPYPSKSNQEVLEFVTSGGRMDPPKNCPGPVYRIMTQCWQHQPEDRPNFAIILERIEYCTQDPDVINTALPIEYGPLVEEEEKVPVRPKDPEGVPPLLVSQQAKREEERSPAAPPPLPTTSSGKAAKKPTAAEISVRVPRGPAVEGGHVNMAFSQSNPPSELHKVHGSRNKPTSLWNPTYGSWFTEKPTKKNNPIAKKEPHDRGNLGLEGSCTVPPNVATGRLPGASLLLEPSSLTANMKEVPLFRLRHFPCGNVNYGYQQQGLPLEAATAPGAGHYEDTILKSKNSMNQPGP
In short: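 Wells were coated with phospholipase C-γ at 10 μg/mL in Tris-buffered saline. Adding 30 ng/ml enzyme started the reaction, which ran at 37° C for 15 minutes before Eu-N1 PT66 antibody detection. Percent inhibition versus log10 concentration gave IC50 by variable-slope fit.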

SMILES | IC50 [1] [nM] | IC50 [2] [nM]
CCN1C(=O)C(N)CCc2c1ccc(Nc1ncc(Cl)c(Nc3ccccc3S(=O)(=O)C(C)C)n1)c2OC (stereo not drawn) [Example 1337, 3-Amino-7-{5-chloro-4-[2-(propane-2-sulfonyl)-phenylamino]-pyrimidin-2-ylamino}-1-ethyl-6-methoxy-1,3,4,5-tetrahydro-benzo[b]azepin-2-one] | > 10000 | < 100
CCN1C(=O)C(N)CCc2c1ccc(Nc1ncc(Cl)c(N[C@@H]3CCCC[C@H]3NS(C)(=O)=O)n1)c2OC (stereo partly drawn) [Example 1338, N-{(1R,2R)-2-[2-(3-Amino-1-ethyl-6-methoxy-2-oxo-2,3,4,5-tetrahydro-1H-benzo[b]azepin-7-ylamino)-5-chloro-pyrimidin-4-ylamino]-cyclohexyl}-methanesulfonamide] | > 10000 | 100 to 1000
CCN1C(=O)CCCc2c1ccc(Nc1ncc(Cl)c(Nc3ccc(N(C)C)cc3OC)n1)c2OC [Example 1339, 7-[5-Chloro-4-(4-dimethylamino-2-methoxy-phenylamino)-pyrimidin-2-ylamino]-1-ethyl-6-methoxy-1,3,4,5-tetrahydro-benzo[b]azepin-2-one] | > 10000 | 100 to 1000
CCN1C(=O)CCCc2cc(Nc3ncc(Cl)c(Nc4ccc(N(C)C)cc4OC)n3)c(OC)cc21 [Example 1340, 7-[5-Chloro-4-(4-dimethylamino-2-methoxy-phenylamino)-pyrimidin-2-ylamino]-1-ethyl-8-methoxy-1,3,4,5-tetrahydro-benzo[b]azepin-2-one] | > 10000 | < 100
COc1cc(N(C)C)ccc1Nc1nc(Nc2ccc3c(c2)C(C)(C)CCC(=O)N3C)ncc1Cl [Example 1342, 7-[5-Chloro-4-(4-dimethylamino-2-methoxy-phenylamino)-pyrimidin-2-ylamino]-1,5,5-trimethyl-1,3,4,5-tetrahydro-benzo[b]azepin-2-one] | 1000 to 10000 | < 100
CCN1C(=O)C(N)CCc2c1ccc(Nc1ncc(Cl)c(Nc3ccc(N(C)C)cc3OC)n1)c2OC (stereo not drawn) [Example 1343, 3-Amino-7-[5-chloro-4-(4-dimethylamino-2-methoxy-phenylamino)-pyrimidin-2-ylamino]-1-ethyl-6-methoxy-1,3,4,5-tetrahydro-benzo[b]azepin-2-one] | > 10000 | < 100
CCN1C(=O)C(N(C)C)CCc2c1ccc(Nc1ncc(Cl)c(Nc3ccccc3S(=O)(=O)N(C)C)n1)c2OC (stereo not drawn) [Example 1348, 2-[5-Chloro-2-(3-dimethylamino-1-ethyl-6-methoxy-2-oxo-2,3,4,5-tetrahydro-1H-benzo[b]azepin-7-ylamino)-pyrimidin-4-ylamino]-N,N-dimethyl-benzenesulfonamide] | > 10000 | < 100
CCN1C(=O)C(N(C)C)CCc2c1ccc(Nc1ncc(Cl)c(Nc3ccccc3-n3cccn3)n1)c2OC (stereo not drawn) [Example 1349, 7-[5-Chloro-4-(2-pyrazol-1-yl-phenylamino)-pyrimidin-2-ylamino]-3-dimethylamino-1-ethyl-6-methoxy-1,3,4,5-tetrahydro-benzo[b]azepin-2-one] | > 10000 | < 100
CCN1C(=O)C(NC(=O)COC)CCc2c1ccc(Nc1ncc(Cl)c(Nc3ccccc3S(=O)(=O)N(C)C)n1)c2OC (stereo not drawn) [Example 1352, N-{7-[5-Chloro-4-(2-dimethylsulfamoyl-phenylamino)-pyrimidin-2-ylamino]-1-ethyl-6-methoxy-2-oxo-2,3,4,5-tetrahydro-1H-benzo[b]azepin-3-yl}-2-methoxy-acetamide] | > 10000 | < 100
CCN1C(=O)C(NC(=O)CN(C)C)CCc2c1ccc(Nc1ncc(Cl)c(Nc3ccccc3S(=O)(=O)N(C)C)n1)c2OC (stereo not drawn) [Example 1356, N-{7-[5-Chloro-4-(2-dimethylsulfamoyl-phenylamino)-pyrimidin-2-ylamino]-1-ethyl-6-methoxy-2-oxo-2,3,4,5-tetrahydro-1H-benzo[b]azepin-3-yl}-2-dimethylamino-acetamide] | > 10000 | < 100
CCN1C(=O)C(NC(=O)C2CC2)CCc2c1ccc(Nc1ncc(Cl)c(Nc3ccccc3S(=O)(=O)N(C)C)n1)c2OC (stereo not drawn) [Example 1359, Cyclopropanecarboxylic acid {7-[5-chloro-4-(2-dimethylsulfamoyl-phenylamino)-pyrimidin-2-ylamino]-1-ethyl-6-methoxy-2-oxo-2,3,4,5-tetrahydro-1H-benzo[b]azepin-3-yl}-amide] | > 10000 | < 100
CNC(=O)c1cccc(F)c1Nc1nc(Nc2ccc3c(c2)CCN(C[C@@H](OC)C(F)(F)F)CC3)ncc1Cl [Example 1361, 2-{5-Chloro-2-[3-((R)-3,3,3-trifluoro-2-methoxy-propyl)-2,3,4,5-tetrahydro-1H-benzo[d]azepin-7-ylamino]-pyrimidin-4-ylamino}-3-fluoro-N-methyl-benzamide] | < 100 | < 100
CNC(=O)c1scc(C)c1Nc1nc(Nc2ccc3c(c2)CCN(CCOC)CC3)ncc1Cl [Example 1362, 3-{5-Chloro-2-[3-(2-methoxy-ethyl)-2,3,4,5-tetrahydro-1H-benzo[d]azepin-7-ylamino]-pyrimidin-4-ylamino}-4-methyl-thiophene-2-carboxylic acid methylamide] | < 100 | 100 to 1000
CCNC(=O)c1cccc(F)c1Nc1nc(Nc2cc3c(cc2OC)CCN(CC(=O)NC)CC3)ncc1Cl [Example 1364, 2-[5-Chloro-2-(8-methoxy-3-methylcarbamoylmethyl-2,3,4,5-tetrahydro-1H-benzo[d]azepin-7-ylamino)-pyrimidin-4-ylamino]-N-ethyl-3-fluoro-benzamide] | 1000 to 10000 | < 100
CCNC(=O)c1cccc(F)c1Nc1nc(Nc2ccc3c(c2)C(C)(C)CCC(=O)N3)ncc1Cl [Example 1365, 2-[5-Chloro-2-(5,5-dimethyl-2-oxo-2,3,4,5-tetrahydro-1H-benzo[b]azepin-7-ylamino)-pyrimidin-4-ylamino]-N-ethyl-3-fluoro-benzamide] | < 100 | < 100
CCNC(=O)c1cccc(F)c1Nc1nc(Nc2ccc3c(c2)C(C)(C)CCC(=O)N3C)ncc1Cl [Example 1366, 2-[5-Chloro-2-(1,5,5-trimethyl-2-oxo-2,3,4,5-tetrahydro-1H-benzo[b]azepin-7-ylamino)-pyrimidin-4-ylamino]-N-ethyl-3-fluoro-benzamide] | < 100 | < 100
CCNC(=O)c1cccc(F)c1Nc1nc(Nc2ccc3c(c2)CCN(CC(=O)N(C)C)CC3)ncc1Cl [Example 1367, 2-[5-Chloro-2-(3-dimethylcarbamoylmethyl-2,3,4,5-tetrahydro-1H-benzo[d]azepin-7-ylamino)-pyrimidin-4-ylamino]-N-ethyl-3-fluoro-benzamide] | < 100 | < 100
COc1cc(N2CCOCC2)ccc1Nc1nc(Nc2ccc3c(c2)CCN(CC(=O)N(C)C)CC3)ncc1Cl [Example 1368, 2-{7-[5-Chloro-4-(2-methoxy-4-morpholin-4-yl-phenylamino)-pyrimidin-2-ylamino]-1,2,4,5-tetrahydro-benzo[d]azepin-3-yl}-N,N-dimethyl-acetamide] | 1000 to 10000 | < 100
CNC(=O)c1cccc(F)c1Nc1nc(Nc2ccc3c(c2)CCN(CC(=O)N(C)C)CC3)ncc1Cl [Example 1369, 2-[5-Chloro-2-(3-dimethylcarbamoylmethyl-2,3,4,5-tetrahydro-1H-benzo[d]azepin-7-ylamino)-pyrimidin-4-ylamino]-3-fluoro-N-methyl-benzamide] | < 100 | < 100
CNC(=O)c1cccc(Cl)c1Nc1nc(Nc2ccc3c(c2)CCN(CC(=O)N(C)C)CC3)ncc1Cl [Example 1370, 3-Chloro-2-[5-chloro-2-(3-dimethylcarbamoylmethyl-2,3,4,5-tetrahydro-1H-benzo[d]azepin-7-ylamino)-pyrimidin-4-ylamino]-N-methyl-benzamide] | < 100 | 100 to 1000
CN(C)C(=O)CN1CCc2ccc(Nc3ncc(Cl)c(N[C@@H]4CCCC[C@H]4NS(C)(=O)=O)n3)cc2CC1 [Example 1371, 2-{7-[5-Chloro-4-((1R,2R)-2-methanesulfonylamino-cyclohexylamino)-pyrimidin-2-ylamino]-1,2,4,5-tetrahydro-benzo[d]azepin-3-yl}-N,N-dimethyl-acetamide] | 100 to 1000 | < 100
CCNC(=O)c1cccc(F)c1Nc1nc(Nc2ccc3c(c2)CCN(CC(=O)NC)CC3)ncc1Cl [Example 1372, 2-[5-Chloro-2-(3-methylcarbamoylmethyl-2,3,4,5-tetrahydro-1H-benzo[d]azepin-7-ylamino)-pyrimidin-4-ylamino]-N-ethyl-3-fluoro-benzamide] | < 100 | < 100
CNC(=O)CN1CCc2ccc(Nc3ncc(Cl)c(Nc4c(Cl)cccc4C(=O)NC)n3)cc2CC1 [Example 1373, 3-Chloro-2-[5-chloro-2-(3-methylcarbamoylmethyl-2,3,4,5-tetrahydro-1H-benzo[d]azepin-7-ylamino)-pyrimidin-4-ylamino]-N-methyl-benzamide] | < 100 | 100 to 1000
CNC(=O)CN1CCc2ccc(Nc3ncc(Cl)c(N[C@@H]4CCCC[C@H]4NS(C)(=O)=O)n3)cc2CC1 [Example 1374, 2-{7-[5-Chloro-4-((1R,2R)-2-methanesulfonylamino-cyclohexylamino)-pyrimidin-2-ylamino]-1,2,4,5-tetrahydro-benzo[d]azepin-3-yl}-N-methyl-acetamide] | 100 to 1000 | < 100
